Experimental findings from patent US10005767B2, “Compositions and methods for inhibition of the JAK pathway” (Rigel Pharmaceuticals, Inc., priority 2009, dated 2018) are described below.

Where a name gives a salt, the structure may show the parent alone. Read-outs that look alike come from different tables or passages of the source.

The subject of the assay is human primary T-cells, IL-2 stimulated proliferation (JAK-1 and JAK-3 dependent; reported as JAK3 activity). Nature of the assay: Human primary T-cell proliferation stimulated by IL-2 (Example 3). Format: cell-based. To be noted: tested under conditions described in Example 3 (IL-2 stimulated human primary T-cell proliferation), read-out: ability to inhibit JAK3 activity, IC50 range (Table V). The method in brief: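 Peripheral-blood human T-cells pre-activated via TCR/CD28, IL-2-starved overnight, then cultured 72 h at 37 °C with compound in Yssel's medium containing IL-2 (80 U/mL in cell suspension). Proliferation read as viable-cell ATP by CellTiter-Glo luminescence; reduction versus control taken as JAK pathway inhibition.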

Regarding `Cc1cnc(Nc2ccc(C(=O)N3CCN(CC(C)C)CC3)nc2)nc1Nc1ccc2oc(=O)[nH]c2c1` [II-47, 5-{2-[6-(4-Isobutyl-piperazine-1-carbonyl)-pyridin-3-ylamino]-5-methyl-pyrimidin-4-ylamino}-3H-benzooxazol-2-one], the IC50 (in general, the concentration that inhibits the measured activity by half) (Homo sapiens, T-cell) is below 500 nM.
On the same count and under the same terms, as for `Cc1cnc(Nc2ccc(NS(C)(=O)=O)cc2)nc1Nc1ccc2[nH]c(=O)[nH]c2c1` [Compound I-50, N2-(4-(methylsulfonylamino)phenyl)-N4-(1H-benzo[d]imidazol-2(3H)-on-5-yl)-5-methylpyrimidine-2,4-diamine], the figure is below 500 nM.
Turning to `Cc1cnc(Nc2ccc(OCC(N)=O)cc2)nc1Nc1ccc2oc(=O)[nH]c2c1` [Compound I-307, N2-(4-aminocarbonylmethoxy)phenyl-5-methyl-N4-(2-oxo-2,3-dihydro-1,3-benzoxazol-5-yl)-2,4-pyrimidinediamine], the IC50 was below 500 nM.
Take `Cc1cnc(Nc2ccc(OC(F)F)c(Cl)c2)nc1Nc1ccc2oc(=O)[nH]c2c1` [Compound I-314, N2-(3-chloro-4-difluoromethoxy)phenyl-5-methyl-N4-(2-oxo-2,3-dihydro-1,3-benzoxazol-5-yl)-2,4-pyrimidinediamine]: the IC50 was below 500 nM.
On the same count and under the same terms, with `Cc1cnc(Nc2cc(C)c(F)c(C)c2)nc1Nc1ccc2oc(=O)n(COP(=O)(O)O)c2c1` [Compound I-451, N2-(3,5-dimethyl-4-fluoro)phenyl-5-methyl-N4-[3-(phosphonooxy)methyl-2-oxo-2,3-dihydro-1,3-benzoxazol-5-yl]-2,4-pyrimidinediamine bis-sodium salt] the figure was 500 to 5000 nM.
For the compound `Cc1cnc(Nc2ccc(F)c(S(C)(=O)=O)c2)nc1Nc1cc(C)c2oc(=O)[nH]c2c1` [Compound I-245, 5-(2-(4-fluoro-3-(methylsulfonyl)phenylamino)-5-methylpyrimidin-4-ylamino)-7-methylbenzo[d]oxazol-2(3H)-one], under “Homo sapiens, T-cell”, the IC50 was below 500 nM.
Still for that read-out and setting: with `COc1cc(Nc2ncc(C)c(Nc3ccc4oc(=O)[nH]c4c3)n2)cc(C(C)N2CCCC2)c1` (centres unmarked) [Compound I-234, 5-(2-(3-methoxy-5-(1-(pyrrolidin-1-yl)ethyl)phenylamino)-5-methylpyrimidin-4-ylamino)benzo[d]oxazol-2(3H)-one] the figure was below 500 nM.
In the case of `Cn1c(=O)oc2cc(Nc3nc(Nc4cccc(NS(C)(=O)=O)c4)ncc3F)ccc21` [Compound I-61, N2-((3-methylsulfonylamino)phenyl)-N4-(3-methyl-2-oxo-2,3-dihydrobenzo[d]oxazol-6-yl)-5-fluoropyrimidine-2,4-diamine], the IC50 was below 500 nM.
For `Cc1cnc(Nc2ccc(N(C)C)nc2)nc1Nc1ccc2oc(=O)[nH]c2c1` [II-1, N4-(benzo[d]oxazol-2(3H)-on-5-yl)-N2-(6-dimethylaminopyridin-3-yl)-5-methylpyrimidine-2,4-diamine], for the setting “Homo sapiens, T-cell”, the IC50 was below 500 nM.
For `Cc1ccc(Nc2ncc(C)c(Nc3ccc4oc(=O)[nH]c4c3)n2)cc1-c1ccncc1` [Compound I-443, 5-(5-methyl-2-(4-methyl-3-(pyridin-4-yl)phenylamino)pyrimidin-4-ylamino)benzo[d]oxazol-2(3H)-one], where the note is “Homo sapiens, T-cell”, the IC50 was below 500 nM.
For the compound `Cc1cnc(Nc2cccc(-c3cccnc3)c2)nc1Nc1ccc2oc(=O)[nH]c2c1` [Compound I-290, 5-methyl-N4-(2-oxo-2,3-dihydro-1,3-benzoxazol-5-yl)-N2-[3-(pyridin-3-yl)]phenyl-2,4-pyrimidinediamine], the IC50 is below 500 nM.
As for `Cc1cnc(Nc2ccc(C(N)=O)c(N3CCCC3)c2)nc1Nc1ccc2oc(=O)[nH]c2c1` [Compound I-136, 4-[5-Methyl-4-(2-oxo-2,3-dihydro-benzooxazol-5-ylamino)-pyrimidin-2-ylamino]-2-pyrrolidin-1-yl-benzamide], where the note is “Homo sapiens, T-cell”, the IC50 was below 500 nM.
Same read-out and setting: as for `Cc1cnc(Nc2ccc(N3C[C@H]4C[C@@H]3CN4C)nc2)nc1Nc1ccc2oc(=O)[nH]c2c1` [II-2, N4-(benzo[d]oxazol-2(3H)-on-5-yl)-N2-(6-((1R,4R)-5-methyl-2,5-diazabicyclo[2.2.1]heptan-2-yl)-pyridin-3-yl)-5-methylpyrimidine-2,4-diamine], the figure is below 500 nM.
The same measure, in the same setting: as for `COc1ccc(Nc2ncc(C)c(Nc3cc(F)c4oc(=O)[nH]c4c3)n2)cc1C` [Compound I-431, 7-fluoro-5-(2-(4-methoxy-3-methylphenylamino)-5-methylpyrimidin-4-ylamino)benzo[d]oxazol-2(3H)-one], the figure is below 500 nM; as for `Cc1cnc(Nc2ccc(-c3ccc(N4CCOCC4)nc3)cc2)nc1Nc1ccc2oc(=O)[nH]c2c1` [Compound I-512, 5-(5-methyl-2-(4-(6-morpholinopyridin-3-yl)phenylamino)pyrimidin-4-ylamino)benzo[d]oxazol-2(3H)-one trifluoroacetate salt], below 500 nM.
Turning to `Cc1cnc(Nc2ccc(N3CCOC[C@@H]3C)nc2)nc1Nc1ccc2oc(=O)[nH]c2c1` [II-134, 5-methyl-N2-[2-(3 S-methylmorpholino)pyridin-5-yl]-N4-(2-oxo-2,3-dihydro-1,3-benzoxazol-5-yl)-2,4-pyrimidinediamine], the IC50 is below 500 nM.
In the case of `Cc1cnc(Nc2ccc(NC3CC4CCC(C3)N4C)cc2)nc1Nc1ccc2oc(=O)[nH]c2c1` (centres unmarked) [Compound I-121, N4-(benzo[d]oxazol-2(3H)-on-5-yl)-N2-(4-(8-methyl-8-azabicyclo[3.2.1]octan-3-ylamino)phenyl)-5-methylpyrimidine-2,4-diamine], the IC50 (Homo sapiens, T-cell) is 500 to 5000 nM.
On the same count and under the same terms, with `CC(=O)NC1CCN(c2ccc(Nc3ncc(C)c(Nc4ccc5oc(=O)[nH]c5c4)n3)cn2)C1` (centres unmarked) [II-81, N-(1-(5-(5-methyl-4-(2-oxo-2,3-dihydrobenzo[d]oxazol-5-ylamino)pyrimidin-2-ylamino)pyridin-2-yl)pyrrolidin-3-yl)acetamide] the figure was below 500 nM.
Still for that read-out and setting: as for `Cc1cnc(Nc2c(F)cc(F)cc2F)nc1Nc1ccc2oc(=O)[nH]c2c1` [IV-59, 5-[5-Methyl-2-(2,4,6-trifluoro-phenylamino)-pyrimidin-4-ylamino]-3H-benzooxazol-2-one], the figure is above 10000 nM.
Same read-out and setting: with `Cc1cnc(Nc2ccc3c(c2)CCCC(=O)N3)nc1Nc1ccc2oc(=O)[nH]c2c1` [IV-31, 5-(5-methyl-2-(2-oxo-2,3,4,5-tetrahydro-1H-benzo[b]azepin-7-ylamino)pyrimidin-4-ylamino)benzo[d]oxazol-2(3H)-one] the figure was below 500 nM.
Consider `Cc1cnc(Nc2cc(OC(F)F)cc(C(F)(F)F)c2)nc1Nc1ccc2oc(=O)[nH]c2c1` [Compound I-353, N2-(3-difluoromethoxy-5-trifluoromethyl)phenyl-5-methyl-N4-(2-oxo-2,3-dihydro-1,3-benzoxazol-5-yl)-2,4-pyrimidinediamine], for which the IC50 was below 500 nM.
On to `Cc1cnc(Nc2cccc(OC(F)(F)F)c2)nc1Nc1ccc2oc(=O)[nH]c2c1` [Compound I-106, N4-(benzoxazolin-2-on-5-yl)-N2-(3-trifluoromethoxyphenyl)-5-methylpyrimidine-2,4-diamine trifluoroacetate salt], for which the IC50 (Homo sapiens, T-cell) was below 500 nM.
On to `Cc1cnc(Nc2ccc(N[C@H]3CCCNC3)nc2)nc1Nc1ccc2oc(=O)[nH]c2c1` [II-104, (S)-5-(5-methyl-2-(6-(piperidin-3-ylamino)pyridin-3-ylamino)pyrimidin-4-ylamino)benzo[d]oxazol-2(3H)-one], for which the IC50 (Homo sapiens, T-cell) is below 500 nM.
